Results on one compound are retold here after patent publication US8980259B2, “Combination therapy” (Novartis AG, priority 2012, dated 2015).

Assay [1] relates to MCF7 human breast carcinoma cells. Briefly: Cell viability / proliferation assay (CELLTITER-GLO, dose matrix) in MCF7 cells. It is filed as cell-based. As to the method:
FIG. 1 is a series of graphs showing the effect of the combination of COMPOUND A with ANTIBODY A on MCF7 cell proliferation under the presence of IGF-1 (100 ng/ml). Briefly, MCF7 cells were treated in 384-well format for 5 days with COMPOUND A and ANTIBODY A in the presence of 100 ng/ml of IGF1 in SD medium. […] Each data point represents averaged data from 3 wells+standard deviation, and the color spectrum also represents the level of the inhibition. A red rectangle highlights the region where the combination is more efficacious than the single agents the same dose.
COMPOUND A (10 mM), stored in aliquots at −20° C. ANTIBODY A (0.2 mM in 1% BSA), stored in aliquots at 4° C. […]
Cell viability was determined by measuring cellular ATP content using the CELLTITER-GLO (CTG) luminescent cell viability assay (Promega). […] An equal volume of the CTG reagents was added to each well at the end of the compound treatment and luminescence was recorded on an ENVISION plate reader (Perkin Elmer). Reduced and enhanched luminescent signal values (responses) were calculated relative to untreated (control) cells. […]
The synergistic interaction (analyzed using Chalice software [CombinatoRx, Cambridge Mass.]) was calculated by comparing the response from a combination to the response of the agent acting alone, against the drug-with-itself dose-additive reference model. […]

A further assay concerns MCF7 xenograft. Nature of the assay: MCF7 xenograft in mice, tumor volume. It is filed as in vivo. As to the method: MCF-7 cells (purchased from American Type Culture Collection (ATCC)) were tested free of mycoplasma and viral contamination in the IMPACT VIII PCR assay panel (RADIL, MU Research Animal Diagnostic Laboratory, Columbia, Mo.). MCF-7 cells were cultured in EMEM medium (ATCC#30-2003) containing 10% heat-inactivated fetal bovine serum. Mice were implanted with 17b-estradiol pellets, 0.18 mg/pellet, 90-day release (Innovative research of America Catalog #NE-121), between the shoulder blades three days before the cell implant.
Treatment started on day 21 and concluded by day 59. Tumor volume of each group was measured. The effect of COMPOUND A and ANTIBODY A, as monotherapy and combination, was assessed by comparing: • (a) the percent change between Day 1 and endpoint day in the mean tumor volume of the treated group (T) and the control group (C) (herein referred to as “T/C”), and • (b) the percent change between Day 1 and the endpoint day in the mean tumor volume of the treated group compared to its initial volume (herein referred to as “T/T0”).

As to `Cc1nc(NC(=O)N2CCC[C@H]2C(N)=O)sc1-c1ccnc(C(C)(C)C(F)(F)F)c1` [COMPOUND A, (S)-Pyrrolidine-1,2-dicarboxylic acid 2-amide 1-({4-methyl-5-[2-(2,2,2-trifluoro-1,1-dimethyl-ethyl)-pyridin-4-yl]-thiazol-2-yl}-amide)], the “MCF7 growth inhibition in vitro (summary in words)” value in assay [1] (MCF7, Experiment 1 summary) is recorded as “concentration-dependent tumor growth inhibition”. Further, the “anti-proliferative activity (in words)” value in assay [1] (MCF7, single agent, either in the presence or absence of IGF1) is “concentration dependent anti-proliferative activity”. Moreover, the “tumor outcome in MCF7 xenograft (summary in words)” value with MCF7 xenograft (MCF7 xenograft in mice, Experiment 2 summary) is reported as “tumor stasis”. Further, the “T/C (percent change in mean tumor volume, treated vs control group)” value in the assay on MCF7 xenograft (MCF7 xenograft mice, COMPOUND A 30 mg/kg qd po, ANTIBODY A 12 mg/kg q2w ip, treatment day 21 to day 59) was determined as 10%.
